# Measurements: publication PMC7004148, “Flexible Fragment Growing Boosts Potency of Quorum‐Sensing Inhibitors against Pseudomonas aeruginosa Virulence” (Chemmedchem, 2019)
# How the values were obtained:
# PqsR [1] = molecular target: T1, PqsR (Pseudomonas aeruginosa, UniProt Q9I4X0); test: biochemical; type: binding; design: H6SUMOPqsRc87 and T265A mutant H6SUMOPqsRc87 for ITC studies was expressed; made in house; host or cells: E. coli BL21 (λDE3); details: for -TΔS / ΔG / EE / LE: Table S1; for EE: enthalpic efficiency; for LE: ligand efficiency
# Method: 3.2 Expression and Purification of H6SUMOPqsRc87
# H6SUMOPqsRc87 and T265A mutant H6SUMOPqsRc87 for ITC studies was expressed and purified as previously reported.[8,9] Briefly, E. coli BL21 (λDE3) transfected with the pSUMO3_ck4_pqsRC87 or pSUMO3_ck4_T265ApqsRC87 plasmid[8] were grown in LB medium containing 50 µg mL-1 kanamycin at 37 °C to an OD600 of approximately 0.8 and expression was induced with 0.2 mM IPTG for 16 h at 16 °C. The protein was purified using nickel affinity chromatography in a one step gradient.
# ITC titrations were performed as described before.[8,9] Briefly, ITC experiments were carried out using an ITC200 instrument (Microcal Inc., GE Healthcare). The titrations were performed on 50-150 µM H6SUMO-PqsRC87 in the 200 µL sample cell using 19 injections of 2 µL ligand solution (0.5-1.5 mM) every 180 s. The data were collected and the area under each peak was integrated. To correct for heats of dilution and mixing the final base line consisting of small peaks of the same size at the end of the titration were substracted.
# Target sequence in this assay (Q9I4X0 87-332): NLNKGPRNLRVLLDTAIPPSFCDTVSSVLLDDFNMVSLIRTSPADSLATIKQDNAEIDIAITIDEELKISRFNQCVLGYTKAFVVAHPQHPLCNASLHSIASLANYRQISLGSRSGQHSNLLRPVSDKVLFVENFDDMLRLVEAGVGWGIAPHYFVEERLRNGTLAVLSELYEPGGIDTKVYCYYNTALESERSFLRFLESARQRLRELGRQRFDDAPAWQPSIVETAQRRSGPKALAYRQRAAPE
# PqsR [2] = molecular target: T1, PqsR; test: PqsR β-galactosidase reporter gene assay in E. coli; type: cell-based; design: expressed in transfected cells; host or cells: E. coli DH5α carrying plasmid pEAL08-2
# Method: 5. E. coli reporter-gene assay & dose-response curves
# PqsR Reporter gene assay in E. coli. The inverse agonistic/antagonistic activity of potential PqsR ligands was evaluated in a β-galactosidase reporter gene assay in E. coli as previously described.[26] In short, test compounds were co-incubated with E. coli DH5α cells containing the plasmid pEAL08-2,[27] which expresses PqsR and the β-galactosidase LacZ under the control of the pqsA promoter. The inverse agonistic/antagonistic activity of compounds was measured in the presence of 50 nM PQS. After incubation, galactosidase activity was quantified photometrically and expressed as ratio of controls. The given IC50 values represent the mean of at least two independent experiments using at least eight different concentrations of test compound with n = 4. Non-linear regression analysis was done using the log (inhibitor) vs response model included in the GrapPad Prism 5.0 software package.
# Target sequence in this assay (Q9I4X0 whole entry): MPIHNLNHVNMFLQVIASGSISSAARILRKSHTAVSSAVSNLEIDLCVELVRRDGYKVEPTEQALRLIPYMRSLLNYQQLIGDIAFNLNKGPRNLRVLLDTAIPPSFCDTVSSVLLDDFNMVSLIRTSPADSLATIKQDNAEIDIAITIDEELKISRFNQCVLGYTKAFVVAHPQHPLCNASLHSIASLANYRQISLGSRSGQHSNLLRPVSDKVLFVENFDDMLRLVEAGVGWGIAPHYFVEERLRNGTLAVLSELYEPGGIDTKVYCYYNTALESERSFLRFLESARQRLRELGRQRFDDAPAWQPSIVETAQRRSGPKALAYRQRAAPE
# [3] = test system: HQNO levels in PA14pqsH strain; test: HQNO quantification in PA14pqsH cultures (UHPLC-MS/MS); type: cell-based; details: Pseudomonas aeruginosa, read-out: HQNO inhibition
# Method: (§1) determine IC50 values using a log (inhibitor) vs. response model with constrains (bottom = 0; top =100) (Graph Pad Prism 5.04).
# (§2) HHQ and HQNO Quantification. Extracellular HHQ and HQNO were measured as previously reported[29] following a modified procedure of Lépine et al.:[30] Briefly, P. aeruginosa PA14pqsH cultures were grown in the presence of DMSO as a control or DMSO solutions of inhibitors for 17 h. HHQ and HQNO were quantified from ethyl acetate extracts using 5,6,7,8-tetradeutero-2-heptyl-4(1H)-quinolone (HHQ-d4) as internal standard (IS).
# (§3) UHPLC-MS/MS analysis was performed as described in detail by Storz et al.[31] The following ions were monitored (mother ion [m/z], product ion [m/z], scan time [s], scan width [m/z], […]
# (§4) quantification was performed using Xcalibur software with the use of a calibration curve relative to the area of the IS. Given data represent the mean of at least two independent experiments with n=3 and were expressed as percentage inhibition relative to DMSO control.
# [4] = test system: HHQ levels in PA14pqsH strain; test: HHQ quantification in PA14pqsH cultures (UHPLC-MS/MS); type: cell-based; details: Pseudomonas aeruginosa, read-out: HHQ inhibition
# Method: as §1, §2, §3, §4
# [5] = test system: Pseudomonas aeruginosa PA14; type: cell-based; details: PA14 cultures grown 16 h in the presence of inhibitors
# Method: (§5) 6. Effects in P. aeruginosa
# (§6) Pyocyanin Assay. The inhibition of virulence factor pyocyanin was measured as described previously[26] following a procedure established by Essar et al.[28] Briefly, Pseudomonas aeruginosa PA14 cultures were grown in the presence of inhibitors or DMSO as control for 16 h. Pyocyanin was determined photometrically after extraction of the cultures with chloroform and re-extraction with 0.2 M HCl. Protonated red colored pyocyanin was determined by measuring OD520 and normalizing to OD600. None of the compound impaired bacterial viability as observed by the OD600 parameter. Inhibition values were expressed in relation to the DMSO control. Each value is the mean of at least two independent experiments with n=3.
# (§7) The given IC50 values represent the mean of at least two experiments using at least five different concentrations. Curve fitting was performed using the log (inhibitor) vs response model with constrained bottom = 0 and top =100 (GraphPad Prism 5.0).
# (§8) Figure S4: Inhibition of virulence factor pyocyanin was evaluated in the clinical isolate PA14.
# (§9) Representative dose-response curves a) compound 11 b) compound 20. Black dotes (•) represent the reduction of pyocyanin in presents of a given compound concentration relative to DMSO control (= 0 %). The continuous black line is the none -linear regression analysis to […]
# [6] = test system: pyocyanin in P. aeruginosa PA14; test: Pyocyanin assay in P. aeruginosa PA14 cultures; type: cell-based, Pseudomonas aeruginosa PA14; details: Pseudomonas aeruginosa; for IC50: PA14, read-out: Pyocyanin IC50, PA14 cultures, photometric quantification, mean of at least two independent experiments, SD<25 %; for inhibition at 100 µM: PA14, read-out: Pyocyanin inhibition
# Method: as §5, §6, §7, §8, §9
# (1 picture or pasted object on this page, not shown here)
# [7] = molecular target: PqsR ligand binding domain; design: method as in PMID 23713667; details: native agonist PQS towards the ligand binding domain; cited from earlier work
# PqsR [8] = test system: PqsR; design: method as in PMID 24338917; details: PQS-mediated effect in E. coli-based assay; read-out: EC 50(E.coli); cited from earlier work
# PqsR [9] = molecular target: T1, PqsR; test: PQS-mediated effect in P. aeruginosa; type: cell-based; design: expressed in transfected cells; host or cells: E. coli DH5α carrying plasmid pEAL08-2
# Target sequence in this assay (Q9I4X0 whole entry): as above
smiles,measurement,setting,value
Nc1cc(NCc2ccccc2)cc(C(F)(F)F)n1 [Compound 12],Kd,PqsR [1],1400 ± 500 nM
same,-TΔS,PqsR [1],3.2 ± 0.5 kcal/mol
same,ΔG,PqsR [1],-8.1 ± 0.3 kcal/mol
same,EE,PqsR [1],0.57 kcal/mol
same,LE,PqsR [1],0.43 kcal/mol
Nc1cc(NCc2ccc(F)cc2F)cc(C(F)(F)F)n1 [Compound 13],Kd,PqsR [1],1300 ± 300 nM
same,-TΔS,PqsR [1],3.5 ± 0.8 kcal/mol
same,ΔG,PqsR [1],-8.0 ± 0.1 kcal/mol
same,EE,PqsR [1],0.55 kcal/mol
same,LE,PqsR [1],0.40 kcal/mol
Nc1cc(NC(=O)c2ccc(F)cc2)cc(C(F)(F)F)n1 [Compound 16],Inverse agonistic/antagonistic activity at a given concentration,"PqsR [2]; @ 100 μM, in the presence of 50 nM PQS",35±5 % @ 100 μM
Nc1cc(N2CCC(c3ccc(F)cc3)C2)cc(C(F)(F)F)n1 (stereo not shown) [Compound 18],IC50 (inverse agonistic/antagonistic activity),"PqsR [2]; in the presence of 50 nM PQS, n.i.=no inhibition (activity≤15 %)",n.i.
Nc1cc(NCCc2ccc(F)cc2)cc(C(F)(F)F)n1 [Compound 19],Kd,PqsR [1],4700 ± 2300 nM
same,-TΔS,PqsR [1],6.1 ± 0.7 kcal/mol
same,ΔG,PqsR [1],-7.4 ± 0.3 kcal/mol
same,EE,PqsR [1],0.64 kcal/mol
same,LE,PqsR [1],0.35 kcal/mol
Nc1cc(NCCCc2ccc(F)cc2)cc(C(F)(F)F)n1 [Compound 20],inhibition at 100 µM,[3],48 ± 1%
same,EE,PqsR [1],0.50 kcal/mol
same,inhibition at 100 µM,[4],56 ± 4%
same,Bacterial viability (OD600),[5],without affecting bacterial viability
same,boost in potency (IC50) versus 11,"PqsR [2]; E. coli reporter gene assay, 20 compared with 11",20 fold
same,IC50,[6],5900 nM
Nc1cc(NCCOc2ccc(F)cc2)cc(C(F)(F)F)n1 [Compound 21],drop in antagonistic activity versus 20,"PqsR [2]; E. coli reporter gene assay, compared with 20",20 fold
same,inhibition at 100 µM,[6],58%
Nc1cc(NCC(=O)Nc2ccc(F)cc2)cc(C(F)(F)F)n1 [Compound 22],inhibition at 100 µM,[6],37%
"O=C(CSc1nc2ccc([N+](=O)[O-])cc2[nH]1)Nc1ccc(Oc2ccccc2)cc1 [Compound R1, reference compound]",IC50,[6],120 nM
"CCCCCCCc1[nH]c2ccc([N+](=O)[O-])cc2c(=O)c1C(N)=O [Compound R2, reference compound]",IC50,[6],2000 nM
"CCCCCCCc1[nH]c2ccccc2c(=O)c1O [PQS, 2‐heptyl‐3‐hydroxy‐4(1H)‐quinolone]",Kd,[7],1200 ± 300 nM
same,EC50,PqsR [8],6.3 nM
same,EC50,PqsR [9],24 nM
